Data taken from patent publication US5932584A, “Optically active 2,3-dihydroimidazo(1,2-C) quinazoline derivatives, the preparation and antihypertensive use thereof” (National Science Council, priority 1997, dated 1999).
Read-outs that look alike come from different tables or passages of the source.

Target: α1 -Adrenergic receptor
Assay: α1-Adrenergic receptor binding assay ([^3 H] prazosin competition, rat brain cortex membranes)
Method: Rat brain cortex membranes were prepared for [^3 H] prazosin or [^3 H] clonidine binding by homogenizing tissues in 0.32 M sucrose buffered with 50 mM Tris buffer (pH 7.4) in a tissue/buffer ratio of 1:10. After the removal of nuclei by centrifugation at 1000×g for 10 min, P2 membranes were pelleted by centrifuging the supernatant at 22,000×g for 20 min. After two periods of centrifugation at 22,000×g and resuspension in fresh buffer, the membrane suspension (about 2 mg/ml protein) was ready for use.
α1 -Adrenergic receptor binding assays (in triplicate) were carried out with 0.2 nM [^3 H] prazosin in a final volume of 1.0 ml of Tris buffer at pH 7.4 for 30 min at room temperature, using […] phentolamine to determine non-specific binding. […] The concentrations of synthetic compounds for competition binding were in the range of 0.1-100 μM. After binding had reached equilibrium, incubations were terminated by collecting the membranes on Whatman GF/B filters; the filters were washed twice with 5 ml of 50 mM Tris buffer (pH 7.4) at 4° C.
[^3 H]prazosin (76.6 Ci/mmol) and [^3 H]clonidine (47.0 Ci/mmol) were purchased from NEN. All other chemicals used were reagent grade and were purchased from Sigma (St. Louis, Mo.).

[1] = preliminary results, read-out: affinity to α1 -adrenoceptor (Ki)
[2] = rat brain cortex membranes, 0.2 nM [^3 H] prazosin, pH 7.4, 30 min, room temperature, read-out: α1 Binding (Ki)

Row | SMILES | Ki [1] [nM] | Ki [2] [nM]
1 | COc1ccccc1N1CCN(CC2CN=C3c4ccccc4N=C(SC)N32)CC1 (racemic) [(RS)-I, reference compound] | 3.55 | –
2 | COc1ccccc1N1CCN(C[C@H]2CN=C3c4ccccc4NC(=O)N32)CC1 [Example 18] | 0.1 | 0.1
3 | COc1ccccc1N1CCN(C[C@@H]2CN=C3c4ccccc4NC(=O)N32)CC1 [Example 19] | – | 26

Other lines, results leading:

Row | Ki [1] [nM] | Ki [2] [nM] | SMILES
4 | 1.88 | 1.88 | COc1ccccc1N1CCN(C[C@H]2CN=C3c4ccccc4N=C(SC)N32)CC1 [Example 16]
5 | 554 | 554 | COc1ccccc1N1CCN(C[C@@H]2CN=C3c4ccccc4N=C(SC)N32)CC1 [Example 17]
